Data published in patent US20220054478A1, “MINIMIZATION OF SYSTEMIC INFLAMMATION” (Ascendis Pharma Oncology Division A/S, priority 2019, published 2022).

Design: species or system WISTAR rats
Conditions: rat, in vivo, sc, 25 ug
Description: Hydrogels were suspended (ca. 6% wt/v) PBST buffer at pH 7.4. […] Blood samples were withdrawn and used for plasma generation over the course of 28 d. […] Plasma concentration profiles were generated and analyzed with Phoenix WinNonlin software (Certara, Princeton, N.J., USA).

t1/2 (biphasic), first phase: 1.5 h
t1/2 (biphasic), second phase: 10 h
Substance: Resiquimod [Compound 4]
